“And” between values parts separate entries of the source, which are not always exact repeats. Identical values can stand only once.
Assays:
β-catenin = β-catenin level in K562 cell extracts by western blot; assay type: cell-based, human
Description: Levels of β-catenin and β-actin proteins in untreated and tetrandrine-treated K562 cell lines by Western blot.
Antibodies for Western Blot analysis against β-catenin and β-actin were purchased from Santa Cruz Biotechnology (Santa Cruz, CA) Protein lysates were prepared by lysing cells in RIPA buffer and immunoprecipitation.
Briefly, the method to quantitate β-catenin protein by western blot was as follows: Extracts of K562 cells (untreated and treated with various concentrations of tetrandrine) were concentrated to 0.4 ml using Centricon-3 column to yield a protein concentration of approximately 2 mg/ml. Samples were mixed with 5X Laemmli buffer and loaded on 8-16% Tris-Glycine gradient gel, then polyacrylamide gel electrophoresis (PAGE) was run at 85 volts for 100 minutes at 6° C. and proteins were transferred on PVDF membrane at 70 Volts for 85 minutes at 8° C. Membrane was blocked with 5% milk in Tris-buffered Saline containing 0.1% TW-20 (TBST). Membrane was incubated with primary antibody for 18 hours at 4° C. followed by 3 washes, 5 minutes each, with TBST and incubated with secondary antibody in TBST for 2 hours at 25° C. […] Protein bands in WB images were quantitated using Molecular Imaging software pack MIS-4.0 software and tabulated in Excel spreadsheet.

[1] = test system: human CML bone marrow-derived cells; experiment: Colony forming cell (CFC) assay on CML patient bone marrow cells; details: colony number, methylcellulose-based medium, 14-16 days
Description: Clonogenic progenitors were set up using buman CML bone marrow-derived cells in the methylcellulose-based media formulation described above. Test articles were added to the medium to give final concentrations as described above. Standard cultures containing IMDM+10% FBS as well as solvent control cultures containing DMSO were also initiated. Following addition of the test compounds and cells, the tubes were vortexed to ensure equal distribution of compound and cells throughout the matrix. The cultures were set up in triplicate at 0.1×10^6 cells per culture (lot #BBM1000-E1110025705111110G4) for each control and each compound concentration. The cultures were placed in a humidified incubator (37° C., 5% CO2). Following 14-16 days in culture, the colonies were assessed and scored by trained personnel.
Human bone marrow light-density cells derived from CML patient bone marrow (Conversant Bio, Alabama), were stored in the gaseous phase of liquid nitrogen until required. On the day of the experiment, the cells were thawed rapidly, the contents of the vial were diluted in 10 mL of Iscove's Modified Dulbecco's Medium containing 10% fetal bovine serum (IMDM+10% FBS) and washed by centrifugation (approximately 1200 r.p.m. for 10 minutes, room temperature). The supernatant was discarded, and the cell pellets were resuspended in a known volume of IMDM+10% FBS. A cell count (3% glacial acetic acid) and viability assessment (trypan blue exclusion test) […] Tetrandrine (10 μM) for 14 days. After treatment, primary and secondary colonies were grown and analyzed by qPCR to determine BCR-ABL or ABL only cells.
Human erythroid (CFU-E and BFU-E) and myeloid (CFU-GM) colony enumeration were performed by trained personnel. In addition, the distribution of colony types as well as general colony and cellular morphology were analyzed. […] For statistical analysis, colony numbers in compound-treated cultures were compared to the solvent control cultures.

[2] = test system: human CML bone marrow-derived cells; experiment: Replating assay (secondary clonal growth of plucked CFU-GM colonies); assay type: cell-based
Description: Following enumeration of the erythroid and myeloid progenitors, individual CFU-GM colonies were plucked from the matrix and diluted in 20 μL of IMDM+10% FBS. The colony was dispersed in this medium by gentle pipetting. This cellular mixture was then added to a well of a 96 well plate containing 180 μL of the ColonyGel medium described above. […] Both the number of wells which supported clonal growth as well as colony number per well were recorded.

bcr-abl transcripts = experiment: qPCR assay for bcr-abl and abl transcripts in primary and secondary colonies; assay type: cell-based, human; details: 10 μM, number of colonies
Description: After 14-16 days in culture, individual colonies were plucked from the solvent control and tetrandrine at 10 μM test condition into 75 μL of buffer RLT (Qiagen). Secondary replated colonies were collected and washed with 2 mL of 1× PBS, frozen at −80° C. and then lysed with 75 μL of buffer RLT (Qiagen). RNA was isolated using the Rneasy Micro kit according to the manufacture's instructions. Because the cell numbers in each colony were low, 20 ng of carrier RNA was included in each reaction to promote a better RNA yield. After elution, the entire isolation was subjected to a cDNA conversion using the high-capacity cDNA conversion kit (Life Technologies).
Using cDNA derived from both primary and secondary replated colonies, qPCR assay was used to determine whether colonies were positive for ber-abl transcripts. Primers and probes were designed based on the publication from Luthra, et.al. and are designed to anneal to ber-abl (target) and abl (endogenous control) cDNA. Each target was assayed in duplicated in a 20 μL reaction volume. Samples were denatured at 95° C. for 10 min and then amplified for 40 rounds of 95° C. for 15 s and 60° C. for 60 s.
To determine whether a colony was normal (bcr-abl negative and abl positive) or diseased (bcr-abl and abl positive), a TaqMan®-based qPCR test was used. In order to score the colonies positive or negative, the following scoring strategy was performed. All colonies were assayed in duplicate for each target. If a singleton reaction yielded a Ct then the reaction scored a 1. If no Ct was recorded, a score of 0 was given. From here, we used a logic test to score the colonies into four different categories: bcr-abl and abl, abl only, bcr-abl only or both negative. In order to be placed in a category, a colony must score a 1 in both reactions. However, if a colony only scored a 1 for one out of the two reactions, this colony was removed from the analysis. If a colony scored a 1 for each reaction (both bcr-abl and abl) the colony was placed into the ber-abl and abl category, signifying it as a diseased colony. Alternatively, if a colony scored a 1 in only both of the bcr-abl reactions or a 1 in only both the abl reactions, the colony was placed in the bcr-abl only or abl only category, respectively. If the colony scored a 0 for both targets (bcr-abl and abl) then the colony was placed in the both negative category.

[3] = test system: leukemic cells and leukemic stem cells; experiment: BCR-ABL induced CML mouse model (bone marrow transplantation); assay type: in vivo, C57BL/6 mice
Description: The method is as follows: 20 C57BL/6 mice were used as donors for bone marrow transduction. They were primed by intravenous injection with 5-fluorouracil four days before collecting cells. Bone marrow cells were harvested from femurs and tibias. Bone marrow cells were infected with a retrovirus containing MSCV-BCR-ABL-IRES-GFP twice 60 recipient mice were lethally irradiated by two doses of 550cGy before bone marrow transplantation by intravenous injection with 500,000 cells/mouse.
In an in vivo model, the effectiveness of Tetrandrine was tested on CML stem cells. The objective of the study was to determine the survival of leukemic cells and leukemic stem cells in response to the treatment with Tetrandrine. After priming donor C57BL/6 (B6) mice with intravenous injections of 5-fluorouracil for four days, bone marrow cells were harvested from femurs and tibia, then transfected twice with retrovirus containing MSCV-BCR-ABL-IRES-GFP. Recipient mice were lethally irradiated by two doses of 550 cGy before bone marrow transplantation by intravenous injection with 5×10^5 cells/mouse. Blood from recipient mice was tested for disease induction one week after transduction by FACS analysis for GFP (FIG. 7A). […] Treatments started on day 8 after bone marrow transplantation (FIG. 7B).

CAMKII gamma = biological target: T1, CAMKII gamma (Homo sapiens, UniProt Q13555); experiment: CAMKII gamma kinase activity (ADP Glo); assay type: biochemical
T1 construct: purchased Promega V3531
Description: An enzymatic study was conducted to evaluate the inhibition of CAMKII gamma by ES-3000 (Tetrandrine). CAMKII gamma kinase activity was measured using […] purchased from Promega following the Promega protocol. CAMKII enzyme system purchased from Promega (V3531). ADP Glo was used for detection. Assay optimized for linearity of protein and time. Conditions for inhibitor screening 25 ng CAMKII, 20 min. incubations, inhibitor or DMSO (5%) at RT in 20 uL total volume. Inhibitors, ATP (10 or 50 uM), substrates and buffer added to tubes and reactions started with enzyme. […] Reactions terminated at 20 min. by adding ADP Glo reaction following manufactures instructions. All reactions were done in duplicate. Calculations of percent (%) inhibition determined by dividing the mean activity at each condition by the mean of the DMSO control times 100.

[4] = test system: human breast, colon carcinoma, and hepatoma cell lines; details: read-out: IC50 range; cited from earlier work
HCT116 cells = details: cited from earlier work
P-glycoprotein (P-gp) = P-glycoprotein (P-gp) (Homo sapiens, UniProt P08183); details: cited from earlier work
calmodulin (CaM) = calmodulin (CaM) (Homo sapiens, UniProt P0DP23); details: Ma 2013; cited from earlier work
hERG = hERG (Homo sapiens, UniProt Q12809); experiment: hERG inhibition, IonWorks HT electrophysiology in CHO cells stably transfected with hERG
[5] = Tetrandrine 150 mg/kg orally 1×/day versus Imatinib 100 mg/kg 2×/day, treatment from day 8 after bone marrow transplantation

T1 sequence (Q13555 whole entry): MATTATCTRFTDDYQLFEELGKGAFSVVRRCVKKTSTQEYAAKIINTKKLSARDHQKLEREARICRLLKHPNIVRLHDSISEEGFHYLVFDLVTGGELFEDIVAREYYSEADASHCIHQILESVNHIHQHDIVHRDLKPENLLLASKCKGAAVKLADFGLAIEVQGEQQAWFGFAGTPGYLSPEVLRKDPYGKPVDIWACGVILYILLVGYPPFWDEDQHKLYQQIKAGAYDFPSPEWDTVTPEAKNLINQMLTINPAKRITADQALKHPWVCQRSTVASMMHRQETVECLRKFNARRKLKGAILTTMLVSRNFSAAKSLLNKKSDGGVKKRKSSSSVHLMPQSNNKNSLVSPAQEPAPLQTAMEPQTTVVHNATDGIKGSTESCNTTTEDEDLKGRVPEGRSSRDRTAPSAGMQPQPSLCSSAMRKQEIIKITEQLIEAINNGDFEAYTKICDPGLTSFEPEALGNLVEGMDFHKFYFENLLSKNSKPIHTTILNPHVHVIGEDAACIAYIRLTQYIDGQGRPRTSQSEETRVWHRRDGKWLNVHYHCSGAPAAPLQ
Sequence of P-glycoprotein (P-gp) (P08183 whole entry): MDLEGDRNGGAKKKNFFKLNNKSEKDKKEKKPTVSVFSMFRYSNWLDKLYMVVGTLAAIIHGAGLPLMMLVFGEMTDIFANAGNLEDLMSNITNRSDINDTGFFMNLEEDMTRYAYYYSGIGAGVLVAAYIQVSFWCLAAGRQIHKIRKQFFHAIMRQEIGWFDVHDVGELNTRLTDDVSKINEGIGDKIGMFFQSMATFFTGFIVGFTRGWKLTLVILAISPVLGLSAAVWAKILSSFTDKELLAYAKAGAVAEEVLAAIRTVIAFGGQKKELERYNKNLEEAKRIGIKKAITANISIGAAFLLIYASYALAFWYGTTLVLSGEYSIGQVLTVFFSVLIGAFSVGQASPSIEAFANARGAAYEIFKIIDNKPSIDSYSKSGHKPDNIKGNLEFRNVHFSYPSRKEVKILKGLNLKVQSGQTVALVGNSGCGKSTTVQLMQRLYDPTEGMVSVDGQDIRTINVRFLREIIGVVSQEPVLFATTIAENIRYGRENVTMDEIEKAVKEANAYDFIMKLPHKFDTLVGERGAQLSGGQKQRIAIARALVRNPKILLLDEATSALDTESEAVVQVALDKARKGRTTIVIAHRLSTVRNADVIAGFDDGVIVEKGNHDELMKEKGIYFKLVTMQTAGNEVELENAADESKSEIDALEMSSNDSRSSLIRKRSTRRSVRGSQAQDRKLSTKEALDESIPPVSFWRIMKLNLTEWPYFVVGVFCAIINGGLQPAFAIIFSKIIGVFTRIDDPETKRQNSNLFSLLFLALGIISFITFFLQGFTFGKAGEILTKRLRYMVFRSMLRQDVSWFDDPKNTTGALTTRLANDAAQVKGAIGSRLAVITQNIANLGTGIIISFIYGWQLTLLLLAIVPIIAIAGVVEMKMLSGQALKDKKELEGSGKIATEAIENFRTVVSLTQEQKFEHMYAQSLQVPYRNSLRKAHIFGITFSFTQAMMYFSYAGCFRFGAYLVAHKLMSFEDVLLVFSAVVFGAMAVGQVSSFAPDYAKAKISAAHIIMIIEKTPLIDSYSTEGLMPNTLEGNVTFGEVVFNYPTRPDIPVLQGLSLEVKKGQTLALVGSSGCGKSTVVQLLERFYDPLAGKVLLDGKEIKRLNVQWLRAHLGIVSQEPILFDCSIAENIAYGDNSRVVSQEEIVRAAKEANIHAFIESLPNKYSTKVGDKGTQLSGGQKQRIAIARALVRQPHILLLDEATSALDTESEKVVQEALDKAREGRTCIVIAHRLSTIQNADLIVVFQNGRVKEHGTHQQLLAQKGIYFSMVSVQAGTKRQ
Sequence of hERG (Q12809 whole entry): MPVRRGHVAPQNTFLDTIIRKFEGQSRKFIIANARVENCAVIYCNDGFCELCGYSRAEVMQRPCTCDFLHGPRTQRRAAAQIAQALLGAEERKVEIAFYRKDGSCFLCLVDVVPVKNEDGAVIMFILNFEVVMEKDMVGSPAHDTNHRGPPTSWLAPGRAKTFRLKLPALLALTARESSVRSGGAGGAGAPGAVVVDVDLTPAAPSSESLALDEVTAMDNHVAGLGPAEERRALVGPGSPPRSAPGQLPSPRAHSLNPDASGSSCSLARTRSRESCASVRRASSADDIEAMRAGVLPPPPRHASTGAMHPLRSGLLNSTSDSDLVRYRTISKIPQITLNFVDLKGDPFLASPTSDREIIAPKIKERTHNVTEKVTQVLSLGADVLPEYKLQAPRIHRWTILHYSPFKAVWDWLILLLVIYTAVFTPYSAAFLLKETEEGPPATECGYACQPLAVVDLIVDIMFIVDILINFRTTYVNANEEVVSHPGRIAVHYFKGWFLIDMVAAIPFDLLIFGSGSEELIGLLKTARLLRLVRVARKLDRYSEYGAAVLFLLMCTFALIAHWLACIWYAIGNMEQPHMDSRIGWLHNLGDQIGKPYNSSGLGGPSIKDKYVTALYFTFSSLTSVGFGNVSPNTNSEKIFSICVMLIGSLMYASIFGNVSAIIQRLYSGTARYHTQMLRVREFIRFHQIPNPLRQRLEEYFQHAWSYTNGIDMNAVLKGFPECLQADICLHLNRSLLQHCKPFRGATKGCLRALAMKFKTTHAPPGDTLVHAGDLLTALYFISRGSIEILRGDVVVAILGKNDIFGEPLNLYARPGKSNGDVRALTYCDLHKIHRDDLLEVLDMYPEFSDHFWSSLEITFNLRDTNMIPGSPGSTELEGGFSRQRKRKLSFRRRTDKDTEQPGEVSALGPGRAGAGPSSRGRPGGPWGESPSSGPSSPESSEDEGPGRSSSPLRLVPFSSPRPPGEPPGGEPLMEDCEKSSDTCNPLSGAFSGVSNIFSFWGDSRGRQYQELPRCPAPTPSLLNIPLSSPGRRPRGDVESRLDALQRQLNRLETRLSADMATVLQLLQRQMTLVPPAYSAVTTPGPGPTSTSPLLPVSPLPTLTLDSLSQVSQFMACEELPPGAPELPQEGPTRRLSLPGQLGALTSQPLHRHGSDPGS

## 6,6′,7,12-tetramethoxy-2,2′-dimethyl-berbaman [ES-3000]
β-catenin; K562 cells treated with 20 and 40 uM
  β-catenin band: absent
β-catenin; K562 cells, 0 to 40 uM, 24 hours, western blot
  β-catenin level: lowers the β-catenin level in K562 cells in a dose dependent manner
[1]; 0.1 μM
  BFU-E: 22 ± 4
  CFU-E: 11 ± 1
  CFU-GM: 55 ± 5
  Total Erythroid: 33 ± 3
[1]; 1 μM
  BFU-E: 22 ± 4
  CFU-E: 10 ± 2
  CFU-GM: 54 ± 2
  Total Erythroid: 33 ± 3
[1]; 3 μM
  BFU-E: 14 ± 3
  CFU-E: 9 ± 2
  CFU-GM: 52 ± 5
  Total Erythroid: 23 ± 2
[1]; 10 μM
  CFU-GM: 26 ± 2
[2]; colonies plucked from original cultures with ES-3000 @ 10 μM, 96 well plate, 14 days
  Repeating Colony Count (secondary colonies per well): 1
[2]; original cultures with ES-3000 @ 10 μM
  average CFC per well: three
bcr-abl transcripts; Primary colonies
  abl only: 1
  bcr-abl only: 1
  both negative: 4
bcr-abl transcripts; Secondary colonies
  abl only: 1
  bcr-abl only: 0
  both negative: 9
[3]; Tetrandrine 150 mg/kg in 0.1N HCl, 1 time per day
  spleen weight: reduces spleen weight
[3]; [5]
  development of circulating leukemic cells: superior to Imatinib
  development of leukemic stem cells: superior to Imatinib
CAMKII gamma; 30 uM inhibitor, 10 uM ATP
  mean (units): 3.09 units
  units (duplicate reactions): 2.75 units and 3.43 units
CAMKII gamma; 30 uM inhibitor, 50 uM ATP
  mean (units): 10.55 units
  units (duplicate reactions): 10.4 units and 10.7 units
CAMKII gamma; 100 uM inhibitor, 10 uM ATP
  mean (units): 2.87 units
  units (duplicate reactions): 2.5 units and 3.24 units
CAMKII gamma; 100 uM inhibitor, 50 uM ATP
  mean (units): 7.955 units
  units (duplicate reactions): 8.81 units and 7.1 units
CAMKII gamma; 250 uM inhibitor, 10 uM ATP
  mean (units): 0.41 units
  units (duplicate reactions): 0.34 units and 0.48 units
[4]
  IC50: 1.5 to 10.4 µM
HCT116 cells; HCT116 (He 2011)
  anticancer activity in combination with 5-FU: synergistic anticancer activity with 5-FU
HCT116 cells; HCT116 cells (He 2011)
  migration and invasion capabilities: reduced migration and invasion capabilities
P-glycoprotein (P-gp); Susa 2010
  P-gp substrate: not a substrate of P-gp
P-glycoprotein (P-gp)
  reversal of P-glycoprotein-mediated drug resistance: potent and specific activity
Calmodulin (CaM)
  binding to calmodulin (CaM): bind competitively to calmodulin
hERG; subjects, interpretation of hERG IC50
  plasma levels at which QT prolongation might be expected: above 249 ng/ml
hERG; utilizing Cmax from previous human clinical experience (Oldham 1998, Oldham 2000)
  safety for cardiac conduction-related toxicity (hERG IC50 versus Cmax): 13 fold

— patent US20240307373A1, “METHODS OF USE AND COMPOSITIONS OF BISBENZYLISOQUINOLINES FOR THE TREATMENT OF MALIGNANCIES” (priority 2023, published 2024)
